Measured values as given in article PMC11783601, “Analogue-Sensitive Inhibition of Histone Demethylases Uncovers Member-Specific Function in Ribosomal Protein Synthesis” (Journal of the American Chemical Society, 2025).

Biological target: T1, MINA (Homo sapiens, UniProt Q8IUF8)
T1 construct: we recombinantly expressed the catalytic domains of 12 wild type dioxygenases; His-TEV (N); host or cells: E. coli BL21 (DE3)
Test: MALDI-based assay for MINA histidyl hydroxylation of peptide
Assay type: biochemical
Conditions: MALDI-TOF, peptide substrate
Protocol: MALDI-based assay for C14orf169 (NO66) and MINA: To monitor the enzymatic activity of
C14orf169 and MINA recombinant proteins, previous methods were utilized.10-11 Briefly, 10 µM
each recombinant protein was incubated with 10 µM peptide substrate (NH2-
Ascorbic Acid, 100 µM Iron (II), 50mM HEPES pH 7.5, and 200 µM L-Leu NOG or equivalent
volume of water in 10 µL water. Aliquots were kept on ice for 10 minutes before addition of 200
µM 2OG or equivalent volume of water. After 30-60 minutes incubation at 37 °C, 1 µL sample and
1 µL S-DHB matrix were spotted on a MALDI plate and monitored with Bruker FlexControl in
the reflectron positive mode and analyzed on Bruker FlexAnalysis software. […]

T1 sequence (Q8IUF8 139-271 limits assumed): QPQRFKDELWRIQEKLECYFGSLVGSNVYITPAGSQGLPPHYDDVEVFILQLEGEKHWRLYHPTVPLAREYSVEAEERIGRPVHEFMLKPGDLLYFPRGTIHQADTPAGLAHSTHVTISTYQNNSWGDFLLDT

CC(C)CC(NC(=O)C(=O)O)C(=O)O (stereo not shown) [compound 6, N-oxalyl leucine]
inhibition of MINA: No inhibition
